Experimental data reported in ChEMBL document CHEMBL1152245 (Bioorg Med Chem Lett, 2008).
Calls of active or inactive are those of the source. The calls are words filed in the database; no cut-off is given here.

Legend:
Assay type in all cases: functional
[1] = target: T1, Muscarinic acetylcholine receptor M1 (Homo sapiens, UniProt P11229); test: Agonist activity at muscarinic M1 receptor
T1 sequence (P11229 whole entry): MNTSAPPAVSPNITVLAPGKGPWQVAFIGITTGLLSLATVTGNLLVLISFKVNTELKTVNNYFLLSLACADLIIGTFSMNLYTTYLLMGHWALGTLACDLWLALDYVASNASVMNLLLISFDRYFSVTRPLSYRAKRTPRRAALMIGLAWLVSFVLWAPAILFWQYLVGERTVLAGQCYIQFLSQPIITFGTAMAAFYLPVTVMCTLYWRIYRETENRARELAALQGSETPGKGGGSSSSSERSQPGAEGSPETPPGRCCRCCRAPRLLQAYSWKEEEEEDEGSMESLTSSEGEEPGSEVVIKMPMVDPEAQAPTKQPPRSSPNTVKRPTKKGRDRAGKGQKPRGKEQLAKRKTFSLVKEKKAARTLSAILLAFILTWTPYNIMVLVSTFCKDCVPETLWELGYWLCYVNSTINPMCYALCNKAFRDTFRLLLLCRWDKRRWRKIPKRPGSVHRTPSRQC

[2] = target: T2, Muscarinic acetylcholine receptor M1 (Homo sapiens) (UniProt P11229); test: Agonist activity at muscarinic M1 receptor relative to carbachol
T2 sequence (whole entry): T1 sequence (P11229 whole entry)

[3] = target: T3, Muscarinic acetylcholine receptor M2 (Homo sapiens, UniProt P08172); test: Agonist activity at muscarinic M2 receptor
T3 sequence (P08172 whole entry): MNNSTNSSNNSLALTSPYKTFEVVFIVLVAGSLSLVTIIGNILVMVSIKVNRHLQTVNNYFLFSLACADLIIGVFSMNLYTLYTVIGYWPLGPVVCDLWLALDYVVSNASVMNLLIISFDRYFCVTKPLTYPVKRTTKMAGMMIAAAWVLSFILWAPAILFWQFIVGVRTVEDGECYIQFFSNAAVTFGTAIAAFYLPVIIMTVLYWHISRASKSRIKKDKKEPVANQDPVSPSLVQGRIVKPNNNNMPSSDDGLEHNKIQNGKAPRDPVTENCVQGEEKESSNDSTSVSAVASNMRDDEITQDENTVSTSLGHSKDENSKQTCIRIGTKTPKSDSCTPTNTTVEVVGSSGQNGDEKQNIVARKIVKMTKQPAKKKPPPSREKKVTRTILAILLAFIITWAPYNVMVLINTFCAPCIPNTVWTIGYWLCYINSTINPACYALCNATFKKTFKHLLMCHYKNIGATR

[4] = target: T4, Muscarinic acetylcholine receptor M3 (Homo sapiens, UniProt P20309); test: Agonist activity at muscarinic M3 receptor
Target sequence in this assay (P20309 whole entry): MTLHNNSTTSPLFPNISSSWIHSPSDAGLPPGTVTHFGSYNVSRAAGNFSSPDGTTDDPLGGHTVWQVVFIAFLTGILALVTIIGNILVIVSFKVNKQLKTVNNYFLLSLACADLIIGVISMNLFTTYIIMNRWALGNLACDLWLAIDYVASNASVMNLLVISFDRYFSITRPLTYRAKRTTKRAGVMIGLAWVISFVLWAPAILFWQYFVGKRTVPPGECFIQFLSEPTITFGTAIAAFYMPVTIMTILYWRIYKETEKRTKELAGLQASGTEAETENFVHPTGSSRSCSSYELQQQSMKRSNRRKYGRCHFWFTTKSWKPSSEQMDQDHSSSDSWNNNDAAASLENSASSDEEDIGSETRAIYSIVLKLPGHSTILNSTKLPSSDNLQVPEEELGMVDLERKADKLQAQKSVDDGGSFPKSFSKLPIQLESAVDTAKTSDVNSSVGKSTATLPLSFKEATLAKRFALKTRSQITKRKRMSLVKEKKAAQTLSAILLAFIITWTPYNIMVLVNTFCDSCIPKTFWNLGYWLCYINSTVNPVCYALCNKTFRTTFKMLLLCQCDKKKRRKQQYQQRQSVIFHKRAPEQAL

[5] = target: T5, Muscarinic acetylcholine receptor M4 (Homo sapiens, UniProt P08173); test: Agonist activity at muscarinic M4 receptor
T5 sequence (P08173 whole entry): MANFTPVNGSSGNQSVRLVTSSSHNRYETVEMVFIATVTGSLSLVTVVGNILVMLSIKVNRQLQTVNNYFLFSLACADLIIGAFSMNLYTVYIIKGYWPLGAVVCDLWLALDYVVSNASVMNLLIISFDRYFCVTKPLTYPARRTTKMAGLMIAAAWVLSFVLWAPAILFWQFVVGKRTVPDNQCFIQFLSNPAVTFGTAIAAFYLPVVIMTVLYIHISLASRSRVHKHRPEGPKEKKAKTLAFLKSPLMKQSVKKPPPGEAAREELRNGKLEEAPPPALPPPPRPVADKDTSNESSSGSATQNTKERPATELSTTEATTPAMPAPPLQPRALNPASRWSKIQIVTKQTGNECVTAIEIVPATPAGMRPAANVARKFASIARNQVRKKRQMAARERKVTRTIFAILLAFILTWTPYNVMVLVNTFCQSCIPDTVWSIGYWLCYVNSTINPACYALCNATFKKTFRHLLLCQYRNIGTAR

[6] = target: T6, Muscarinic acetylcholine receptor M2 (Homo sapiens) (UniProt P08172); test: Agonist activity at muscarinic M2 receptor at up to 30 uM
T6 sequence (whole entry): T3 sequence (P08172 whole entry)

[7] = target: T4, Muscarinic acetylcholine receptor M3; test: Agonist activity at muscarinic M3 receptor at up to 30 uM
Target sequence in this assay (P20309 whole entry, looked up): as the sequence (P20309 whole entry) above

[8] = target: T7, Muscarinic acetylcholine receptor M4 (Homo sapiens) (UniProt P08173); test: Agonist activity at muscarinic M4 receptor at up to 30 uM
T7 sequence (whole entry): T5 sequence (P08173 whole entry)

[9] = target: T8, Muscarinic acetylcholine receptor M5 (Homo sapiens) (UniProt P08912); test: Agonist activity at muscarinic M5 receptor at up to 30 uM
T8 sequence (whole entry): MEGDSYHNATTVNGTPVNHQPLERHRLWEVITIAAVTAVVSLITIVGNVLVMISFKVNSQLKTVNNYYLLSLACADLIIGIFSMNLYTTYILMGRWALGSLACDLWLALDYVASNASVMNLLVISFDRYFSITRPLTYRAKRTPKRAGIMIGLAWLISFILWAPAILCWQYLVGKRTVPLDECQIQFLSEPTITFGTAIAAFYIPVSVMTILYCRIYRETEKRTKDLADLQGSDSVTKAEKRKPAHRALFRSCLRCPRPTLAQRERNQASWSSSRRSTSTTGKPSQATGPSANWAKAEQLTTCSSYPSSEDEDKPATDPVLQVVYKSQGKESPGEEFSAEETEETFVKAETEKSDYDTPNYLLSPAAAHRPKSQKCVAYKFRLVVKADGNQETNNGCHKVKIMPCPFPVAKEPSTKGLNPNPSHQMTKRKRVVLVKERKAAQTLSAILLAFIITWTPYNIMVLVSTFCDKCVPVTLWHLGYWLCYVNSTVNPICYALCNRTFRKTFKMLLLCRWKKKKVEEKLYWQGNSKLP

[10] = target: T9, Muscarinic acetylcholine receptor M5 (Homo sapiens, UniProt P08912); test: Agonist activity at muscarinic M5 receptor
T9 sequence (P08912 whole entry): T8 sequence (whole entry)

D(2) dopamine receptor = D(2) dopamine receptor (Homo sapiens, UniProt P14416); test: Antagonist activity at dopamine D2 receptor
[11] = target: T6, Muscarinic acetylcholine receptor M2 (Homo sapiens); test: Agonist activity at muscarinic M2 receptor relative to carbachol
[12] = target: T7, Muscarinic acetylcholine receptor M4 (Homo sapiens); test: Agonist activity at muscarinic M4 receptor relative to carbachol
[13] = target: T8, Muscarinic acetylcholine receptor M5 (Homo sapiens); test: Agonist activity at muscarinic M5 receptor relative to carbachol

D(2) dopamine receptor, sequence (P14416 whole entry): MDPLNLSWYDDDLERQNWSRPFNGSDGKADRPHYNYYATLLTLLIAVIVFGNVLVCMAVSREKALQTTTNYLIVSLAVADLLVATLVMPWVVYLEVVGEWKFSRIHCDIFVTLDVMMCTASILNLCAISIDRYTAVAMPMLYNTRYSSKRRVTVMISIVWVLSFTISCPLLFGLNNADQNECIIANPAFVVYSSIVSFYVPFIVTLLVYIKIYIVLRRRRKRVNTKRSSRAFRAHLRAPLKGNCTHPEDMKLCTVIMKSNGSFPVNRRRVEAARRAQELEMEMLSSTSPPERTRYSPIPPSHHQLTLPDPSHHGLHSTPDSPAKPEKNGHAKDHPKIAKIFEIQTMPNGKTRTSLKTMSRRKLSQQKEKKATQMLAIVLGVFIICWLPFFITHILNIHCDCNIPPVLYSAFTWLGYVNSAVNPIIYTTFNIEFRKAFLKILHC

Structure (SMILES)	EC50 [1] [µM]	Activity [2] [%]	EC50 [3] [µM]	EC50 [4] [µM]	EC50 [5] [µM]	Activity [6]	Activity [7]	Activity [8]	Activity [9]	EC50 [10] [µM]	IC50 (D(2) dopamine receptor) [µM]	Activity [11] [%]	Activity [12] [%]	Activity [13] [%]
O=C(Nc1cccc(SC(F)(F)F)c1)N1CCC(N2CCC(n3c(=O)[nH]c4ccccc43)CC2)CC1	6.5	85	> 30	> 30	> 30	–	–	–	–	–	–	–	–	–
O=C(c1ccccc1C(F)(F)F)N1CCC(N2CCC(n3c(=O)[nH]c4cc(Cl)ccc43)CC2)CC1	11.1	24	–	–	–	inactive	inactive	inactive	inactive	–	–	–	–	–
O=C(Nc1cccc(SC(F)(F)F)c1)N1CCC(N2CCC(n3c(=O)[nH]c4c(F)cccc43)CC2)CC1	> 10	46	> 30	> 30	> 30	–	–	–	–	–	–	–	–	–
Cc1ccccc1C(=O)N1CCC(N2CCC(n3c(=O)[nH]c4cc(Cl)ccc43)CC2)CC1	2.71	56	–	–	–	inactive	inactive	inactive	inactive	–	–	–	–	–
Cc1cccc(C(=O)N2CCC(N3CCC(n4c(=O)[nH]c5cc(Cl)ccc54)CC3)CC2)c1	2.11	50	–	–	–	inactive	inactive	inactive	inactive	–	–	–	–	–
O=c1[nH]c2ccc(F)cc2n1C1CCN(C2CCN(S(=O)(=O)c3ccccc3)CC2)CC1	3.3	76	> 30	> 30	> 30	–	–	–	–	> 30	> 10	–	–	–
Cc1ccccc1C(=O)N1CCC(N2CCC(n3c(=O)[nH]c4ccccc43)CC2)CC1	0.88	60	–	–	–	inactive	inactive	inactive	inactive	–	–	–	–	–
O=C(Nc1cccc(SC(F)(F)F)c1)N1CCC(N2CCC(n3c(=O)[nH]c4cc(Cl)ccc43)CC2)CC1	3.6	90	> 30	> 30	> 30	–	–	–	–	–	–	–	–	–
O=c1[nH]c2cc(Cl)ccc2n1C1CCN(C2CCN(S(=O)(=O)c3ccccc3)CC2)CC1	4.1	82	> 30	> 30	> 30	–	–	–	–	–	–	–	–	–
O=C(c1cccc(Cl)c1)N1CCC(N2CCC(n3c(=O)[nH]c4ccccc43)CC2)CC1	0.93	21	–	–	–	inactive	inactive	inactive	inactive	–	–	–	–	–
Cc1cccc(C(=O)N2CCC(N3CCC(n4c(=O)[nH]c5ccccc54)CC3)CC2)c1	0.51	53	–	–	–	inactive	inactive	inactive	inactive	–	–	–	–	–
O=C(c1cccc(Cl)c1)N1CCC(N2CCC(n3c(=O)[nH]c4cc(Cl)ccc43)CC2)CC1	7.11	21	–	–	–	inactive	inactive	inactive	inactive	–	–	–	–	–
O=c1[nH]c2ccccc2n1C1CCN(C2CCN(S(=O)(=O)c3ccccc3)CC2)CC1	1.4	82	–	–	–	–	–	–	–	–	–	–	–	–
Cc1ccccc1CN1CCC(N2CCC(n3c(=O)[nH]c4ccccc43)CC2)CC1	–	–	–	–	–	–	–	–	–	–	5.1	–	–	–
O=c1[nH]c2cc(F)ccc2n1C1CCN(C2CCN(S(=O)(=O)c3ccccc3)CC2)CC1	2.3	82	> 30	> 30	> 30	–	–	–	–	> 30	3.6	–	–	–
O=C(c1ccccc1C(F)(F)F)N1CCC(N2CCC(n3c(=O)[nH]c4ccccc43)CC2)CC1	0.91	32	–	–	–	inactive	inactive	inactive	inactive	–	–	–	–	–
O=c1[nH]c2ccccc2n1C1CCN(C2CCN(Cc3ccccc3C(F)(F)F)CC2)CC1	–	80	–	–	–	–	–	–	–	–	–	–	–	–
O=C(Nc1cccc(SC(F)(F)F)c1)N1CCC(N2CCC(n3c(=O)[nH]c4ccc(F)cc43)CC2)CC1	9.6	72	> 30	> 30	> 30	–	–	–	–	–	–	–	–	–
NC(=O)OCCN1CCC(N2CCC(n3c(=O)[nH]c4ccccc43)CC2)CC1	–	–	0.0119	–	0.0091	–	–	–	–	0.0343	–	80.6	96.9	50.8
O=c1[nH]c2c(F)cccc2n1C1CCN(C2CCN(S(=O)(=O)c3ccccc3)CC2)CC1	2.6	49	> 30	> 30	> 30	–	–	–	–	–	–	–	–	–
O=c1[nH]c2cc(Br)ccc2n1C1CCN(C2CCN(S(=O)(=O)c3ccccc3)CC2)CC1	4.4	81	> 30	> 30	> 30	–	–	–	–	–	–	–	–	–
